Source: patent US20230286995A1, “METABOLICALLY STABLE PYRIMIDINYL DIHYDROQUINOXALINONES AS TUBULIN POLYMERIZATION INHIBITORS” (UNIVERSITY OF TENNESSEE RESEARCH FOUNDATION, priority 2022, published 2023)
Entries after “also recorded” stand apart in the source; their conditions may differ. Like-named read-outs stand apart in the source and are kept apart here.

Assays:
[1] = Microsomal stability assay; settings: Table 3; liver microsomes; mean (% CV)
[2] = tested on: human melanoma and breast cancer cell lines; assay: Cytotoxicity, all tested cell lines of Table 1; type: cell-based; settings: Homo sapiens, melanoma and breast lines of Table 1; read-out: IC50 values, range over all tested cell lines
MDA-MB-453 = assay: Cytotoxicity assay (MTS, 72 h); type: cell-based, human; settings: Homo sapiens, MDA-MB-453
MDA-MB-468 = assay: Cytotoxicity assay (MTS, 72 h); type: cell-based, human; settings: Homo sapiens, MDA-MB-468; Table 1; read-out: IC50 (nM) Breast MDA-MB-468
A375/TxR cells [3] = assay: Wound healing (scratch) assay; type: cell-based, human
Method: Scratch-wound assay: The anti-migration effect of 5v was determined by a scratch-wound assay using an IncuCyte S3 live-cell imager as previously reported. After overnight incubation, the monolayers of A375/TxR cells were scratched by a WoundMaker (Essen BioScience) and the cells were treated with 5v (0.5 nM, 1 nM, 2 nM, and 5 nM) for 48 h. The wounds were imaged every 2 h by IncuCyte and the relative wound density was calculated by IncuCyte Scratch Wound Software Module. The assay was performed in quadruplicate.

[4] = tested on: taxane-resistant melanoma, breast, and lung cancer cells; assay: Cytotoxicity, regular and taxane-resistant lines of Table 2; type: cell-based; settings: Homo sapiens
MDA-MB-231/VxR = assay: Cytotoxicity assay (MTS, 72 h); type: cell-based; settings: Homo sapiens
in vitro [5] = settings: human, liver microsomes
A375/TxR = assay: Cytotoxicity assay (MTS, 72 h); type: cell-based; settings: Homo sapiens, read-out: IC50 ± SEM (nM) A375/TxR
MDA-MB-231/TxR = assay: Cytotoxicity assay (MTS, 72 h); type: cell-based; settings: Homo sapiens
M14 = assay: Cytotoxicity assay (MTS, 72 h); settings: Homo sapiens
A375/TxR xenografts = assay: In vivo A375/TxR melanoma xenograft model; design: species or system NSG mice; settings: for decrease in tumor weight vs vehicle group / tumor reduction / tumor growth inhibition vs control: 2 times per week
logP = type: physicochemical; settings: Table 1; method not described
[6] = Tolerability assessment of 5v in healthy mice; type: in vivo
A375/TxR cells [7] = assay: Clonogenic assay; type: cell-based, human; settings: 7 days
Method: In case of clonogenic assay, A375/TxR cells were seeded in 6-well plates at very low concentration (1000 cells/well). […] Medium was replaced with fresh drug once during the treatment. Cells were then fixed with cold methanol and stained with 0.5% crystal violet. Colony area density was quantified using the Keyence Hybrid Cell Count module.
Cell proliferation inhibition assay: The cell proliferation inhibitory effects of tested compounds were first determined through MTS assay as previously described. In short, 3000 to 7500 cells were added to a 96-well cell culture plate followed by the treatment of the test compounds (0.1 nM to 3 μM) in quadruplicate after seeding and overnight incubation. After 72 hours of treatment, MTS (Promega) was added to the wells and the absorbance was measured at […] after incubating for 1.5 to 2 h. […] Briefly, A375/TxR cells (1000 cells/well) were treated with growth medium containing 0.5 nM, 1 nM, or 2 nM of 5v and incubated for over 7 days (the incubation medium was changed every 3 days). After fixing and staining with 0.5% crystal violet, the cell colonies were quantified by the Hybrid Counting module of the Keyence BZ-X700 microscope. The assay was performed in triplicate.

RPMI-7951 = assay: Cytotoxicity assay (MTS, 72 h); type: cell-based; settings: Homo sapiens, Table 1, read-out: IC50 (nM) Melanoma RPMI-7951
PANC-1 = assay: Cytotoxicity assay (MTS, 72 h); type: cell-based; settings: Homo sapiens
Method: Mia PaCa-2 and PANC-1 cells were seeded in 96-well plates at 4000 and 5000 cells per well, respectively.
Cytotoxicity Assay. […] Each experiment consisted of four replicates.

in vitro [8] = settings: mouse, liver microsomes
MDA-MB-231 = assay: Cytotoxicity assay (MTS, 72 h); type: cell-based; settings: Homo sapiens
M14/LCC6MDR1 = assay: Cytotoxicity assay (MTS, 72 h); type: cell-based; settings: Homo sapiens, read-out: IC50 ± SEM (nM) M14/LCC6MDR1
DU-145/VxR = assay: Cytotoxicity assay (MTS, 72 h); type: cell-based; settings: Homo sapiens, DU-145, read-out: IC50 ± SEM (nM) DU-145/VXR
[9] = Table 1, read-out: IC50 (nM) Breast MDA-MB-453
[10] = taxane-resistant melanoma, breast, and lung cancer cells, read-out: IC50 values, range against taxane-resistant cells
[11] = MDA-MB-231, read-out: IC50 ± SEM (nM) MDA-MB-231/VXR
[12] = M14, read-out: IC50 (nM) Melanoma M14
[13] = M14, read-out: IC50 ± SEM (nM) M14
[14] = H&E and anti-human mitochondria IHC
[15] = MDA-MB-231, read-out: IC50 in MDA-MB-231 parental line
[16] = MDA-MB-231, read-out: IC50 ± SEM (nM) MDA-MB-231, Table 2

CCNc1nc2c(c(N3CC(=O)Nc4cc(OC)ccc43)n1)CCC2 [Compound 5v, 4-(2-(ethylamino)-6,7-dihydro-5H-cyclopenta[d]pyrimidin-4-yl)-7-methoxy-3,4-dihydroquinoxalin-2(1H)-one]
Metabolic stability in rat t1/2 [1]: 3.6 min
IC50 [2]: 0.4 to 26 nM
IC50 (MDA-MB-453; [9]): 0.43 ± 0.1 nM
IC50 (MDA-MB-453; Table 6, read-out: IC50 (nM) Breast Cancer MDA-MB-453): 1.3 ± 0.5 nM
IC50 (MDA-MB-468): 0.8 ± 0.1 nM
migration of A375/TxR cells (A375/TxR cells [3]): remarkable potency in inhibiting the cell migration of A375/TxR cells
IC50 [4, 10]: 0.3 to 5 nM
IC50 (MDA-MB-231/VxR; [11]): 1.2 ± 0.3 nM
half-life at 1 μg/mL (in vitro [5]): 24.7 min
microsomal CLint at 1 μg/mL (in vitro [5]): 28.1 µL/min/mg
IC50 (A375/TxR; Table 2, paclitaxel-resistant): 0.3 ± 0.03 nM
IC50 (MDA-MB-231/TxR; read-out: IC50 ± SEM (nM) MDA-MB-231/TxR, Table 2, paclitaxel-resistant): 0.6 ± 0.1 nM
IC50 (M14; M14, read-out: IC50 (nM) Melanoma Cancer M14): 1.5 ± 0.3 nM
IC50 (M14; [12]): 0.6 ± 0.1 nM
IC50 (M14; [13]): 0.3 ± 0.04 nM
decrease in tumor weight vs vehicle group (A375/TxR xenografts; 2 mg/kg IV): 47.4%
tumor reduction / tumor growth inhibition vs control (A375/TxR xenografts; 2 mg/kg IV): 62.3%
toxicity to major organs (heart, kidney, spleen), H&E (A375/TxR xenografts; 2 mg/kg or 4 mg/kg, three weeks): no obvious damage to the major organs; also recorded: no toxicity to major organs
cleaved caspase-3 in tumors, IHC (A375/TxR xenografts; 2 mg/kg, 4 mg/kg): significantly increased the proportion of cleaved caspase-3 positive cells
decrease in tumor weight vs vehicle group (A375/TxR xenografts; 4 mg/kg IV): 59.9%
tumor reduction / tumor growth inhibition vs control (A375/TxR xenografts; 4 mg/kg IV): 76.6%
Ki67 and CD31 expression in tumors, IHC (A375/TxR xenografts; 2 and 4 mg/kg): significantly decreased
spontaneous liver metastasis (A375/TxR xenografts; [14]): significant inhibition of lung or liver metastasis
spontaneous lung metastasis (A375/TxR xenografts; [14]): significant inhibition of lung or liver metastasis
mouse body weight during therapy (A375/TxR xenografts; all doses tested): no body weight loss observed
tumor necrosis, H&E (A375/TxR xenografts; mouse, in vivo): more necrotic cells in 5v-treated tumors
logP (logP): 2.39
tolerability ([6]; 5 mg/kg IP, five times a week): still healthy; also recorded: tolerated at 5 mg/kg IP
tolerability ([6]; 5 mg/kg and 10 mg/kg IV, 2 times a week): safe and no acute toxicity
tolerability ([6]; 10 mg/kg IP, five times a week): toxic to mice; also recorded: not 10 mg/kg IP
colony formation of A375/TxR cells (A375/TxR cells [7]): inhibit the proliferation of A375/TxR cell colonies in a concentration-dependent manner
IC50 (RPMI-7951): 0.5 ± 0.1 nM
IC50 (PANC-1; Table 6, read-out: IC50 (nM) Pancreatic cancer PANC-1): 3.7 ± 0.7 nM
half-life at 1 μg/mL (in vitro [8]): 6.33 min
microsomal CLint at 1 μg/mL (in vitro [8]): 109 µL/min/mg
IC50 (MDA-MB-231; MDA-MB-231, read-out: IC50 (nM) Breast Cancer MDA-MB-231, Table 6): 2.6 ± 0.5 nM
IC50 (MDA-MB-231; MDA-MB-231, read-out: IC50 (nM) Breast MDA-MB-231, Table 1): 0.7 ± 0.1 nM
IC50 (MDA-MB-231; [15]): 1 to 2.2 nM
IC50 (MDA-MB-231; [16]): 1 ± 0.2 nM
IC50 (M14/LCC6MDR1; Table 2, multidrug-resistant): 0.3 ± 0.03 nM
IC50 (DU-145/VxR): 1 ± 0.1 nM

COc1ccc2c(c1)NC(=O)CN2c1nc(C)nc2c1CCC2 [Compound 5m, 7-methoxy-4-(2-methyl-6,7-dihydro-5H-cyclopenta[d]pyrimidin-4-yl)-3,4-dihydroquinoxalin-2(1H)-one]
Metabolic stability in rat t1/2 [1]: 8.0 min
Metabolic stability in rat t1/2 (min) [1]: 7.97 (0.7) min
IC50 [2]: 0.4 to 26 nM
IC50 (MDA-MB-453; [9]): 0.5 ± 0.1 nM
IC50 (MDA-MB-468): 1.8 ± 0.4 nM
migration of A375/TxR cells (A375/TxR cells [3]): markedly inhibited the migration of A375/TxR cells
IC50 ([4]; melanoma, breast and lung cancer cell lines, read-out: IC50 values, range against regular and paclitaxel-resistant lines): 1 to 5 nM
IC50 [4, 10]: 0.3 to 5 nM
IC50 (MDA-MB-231/VxR; MDA-MB-231, 72 h, read-out: IC50 in Compound 17ya resistant MDA-MD-231/VxR cells): 1.2 to 2.9 nM
IC50 (MDA-MB-231/VxR; [11]): 2.3 ± 0.4 nM
CLint scaled at 1 μg/mL (in vitro [5]): 13 mL/min/kg
IC50 (A375/TxR): 1.1 nM
IC50 (MDA-MB-231/TxR; read-out: IC50 ± SEM (nM) MDA-MB-231/TxR): 1.5 ± 0.3 nM
IC50 (M14; [12]): 1.4 ± 0.4 nM
IC50 (M14; [13]): 1.3 ± 0.2 nM
decrease of final tumor volume vs vehicle (A375/TxR xenografts; 2.5 mg/kg IV, 7 doses within 24 days): 64.6%
logP (logP): 2.96
colony formation of A375/TxR cells (A375/TxR cells [7]): completely inhibited the colony formation at high dose, i.e., 2 nM
IC50 (RPMI-7951): 1.5 ± 0.4 nM
IC50 (PANC-1; Example 7, FIG. 20, read-out: calculated IC50, PANC-1 cells): 2.7 nM
CLint scaled at 1 μg/mL (in vitro [8]): 48 mL/min/kg
IC50 (MDA-MB-231; [15]): 1 to 2.2 nM
IC50 (MDA-MB-231; [16]): 1.7 ± 0.4 nM
IC50 (M14/LCC6MDR1): 1.4 ± 0.3 nM
IC50 (DU-145/VxR): 3.7 ± 0.6 nM
